# In US20250122190A1, “HALOGEN-SUBSTITUTED PYRIDAZINONE COMPOUND AND APPLICATION THEREOF” (MEDSHINE DISCOVERY INC., priority 2021, published 2025):
# Assays:
# TRPC5 [1] = details: TRPC5 inhibition; cited from earlier work
# TRPC5 [2] = details: TRPC5 inhibition; cited from earlier work; remark: listed apart in the source
# hTRPC5-T478C [3] = target: T1, hTRPC5-T478C (Homo sapiens, UniProt Q9UL62); test: hTRPC5-T478C FLIPR calcium flux IC50 assay; type: cell-based; details: hTRPC5-T478C-HEK cells, Englerin A as channel agonist
# T1 sequence (Q9UL62 1-973): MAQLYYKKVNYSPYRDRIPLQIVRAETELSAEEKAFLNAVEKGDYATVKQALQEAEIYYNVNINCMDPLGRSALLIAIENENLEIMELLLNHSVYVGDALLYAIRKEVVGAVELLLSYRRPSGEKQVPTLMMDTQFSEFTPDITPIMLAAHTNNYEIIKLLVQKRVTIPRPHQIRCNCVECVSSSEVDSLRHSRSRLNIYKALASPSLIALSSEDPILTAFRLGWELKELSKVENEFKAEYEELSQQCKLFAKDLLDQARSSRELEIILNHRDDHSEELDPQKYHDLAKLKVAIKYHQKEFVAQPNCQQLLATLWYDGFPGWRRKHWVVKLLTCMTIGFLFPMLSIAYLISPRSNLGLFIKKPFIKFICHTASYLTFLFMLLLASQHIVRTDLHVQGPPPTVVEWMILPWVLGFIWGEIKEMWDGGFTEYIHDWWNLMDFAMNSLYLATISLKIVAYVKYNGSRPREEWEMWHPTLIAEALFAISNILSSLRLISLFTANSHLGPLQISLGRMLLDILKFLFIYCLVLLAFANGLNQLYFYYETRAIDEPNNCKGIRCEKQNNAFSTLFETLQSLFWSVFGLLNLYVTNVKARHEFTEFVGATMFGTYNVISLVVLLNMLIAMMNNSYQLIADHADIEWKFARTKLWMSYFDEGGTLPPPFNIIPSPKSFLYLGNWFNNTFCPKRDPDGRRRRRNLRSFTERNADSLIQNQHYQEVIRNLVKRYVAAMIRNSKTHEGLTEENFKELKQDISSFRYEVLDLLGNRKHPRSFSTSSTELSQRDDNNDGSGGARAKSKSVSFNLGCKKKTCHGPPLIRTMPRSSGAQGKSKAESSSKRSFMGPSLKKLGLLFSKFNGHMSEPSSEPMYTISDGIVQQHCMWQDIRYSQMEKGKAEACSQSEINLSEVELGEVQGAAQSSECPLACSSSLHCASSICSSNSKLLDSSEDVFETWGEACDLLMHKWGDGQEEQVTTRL
# Protocol: (§1) Cell culture: hTRPC5-T478C-HEK cells were cultured in a humid environment in 5% CO2 at 37° C.
# (§2) Cell culture medium ingredients: • DMEM, Supplier: Gibco, Catalog No. 11965-092; • FBS, Supplier: Gibco, Catalog No. 10099-141C, Concentration: 10%; • Pen/Strep, Supplier: Invitrogen, Catalog No. 15140-122, Concentration: 1%; • Zeocin, Supplier: Invitrogen, Catalog No. R25005, Concentration: 200 μg/mL; • Blasticidin S, Supplier: Invitrogen, Catalog No. R21001, Concentration: 5 μg/mL.
# (§3) In general, the TRPC5-T478C cell line was passaged three times weekly. The dilution factor for each passage was 1:3. Once the cells reached about 80% confluence in the T-75 flask, the cell line was digested with trypsin for about 1 minute and the cell suspension was removed from the flask with a pipette. Depending on the dilution ratio, the removed cell suspension would be transferred to another T-75 flask containing cell culture medium. Note that in order to maintain the logarithmic growth of the cells, the confluence of the cells should be maintained at the subconfluent stage and the cells should be passaged once every 2 to 3 days depending on the proliferation rate of the cell line.
# (1) Preparation of cell plate: the cells were separated according to the above-mentioned passaging and the cell density and viability were determined using a cell counter. The volume of the cell suspension was adjusted with a cell culture medium. After the density reached to the plating density, 1 μg/mL tetracycline was added to induce hTRPC5-T478C channel expression. The induced hTRPC5-T478C cells were then seeded onto poly-D-lysine (PDL)-coated 384-well plates at a density of 20000 cells/well (30 μL/well). Then the cells were cultured overnight in a cell culture incubator.
# (2) Preparation of compound plate: the compounds were generally diluted with DMSO, prepared into a mother liquor and stored in a −20° C. refrigerator. A compound plating program was set on the ECHO processor, and the compounds were plated with ECHO according to the concentration gradient that was already set. In general, 9 concentrations were included with the highest concentration at 10 μM, 3-fold dilution, and 2 replicate wells. Englerin A was used as the channel agonist.
# (3) On-machine testing: the cell plates and compound plates were prepared according to the above-mentioned methods. After the cell confluence of the cell plate reached 80%-90%, the cells were removed from the incubator and the testing started. Ca5 dye (Molecular Devices #R8185) was formulated with test buffer. After the cell plate culture medium was removed with Bravo, 25 μL of Ca5 dye was added to each well, and the plate was incubated for 1 hour. After 1 hour, the cell plate and compound plate were placed in FLIPR^TETRA (Molecular Devices, USA) for FLIPR detection.
# Data analysis was performed using Excel 2013 (Microsoft, USA) software and GraphPad Prism 6.01 software. The maximum signal was generated by FLIPR software. Data analysis was performed using Excel (2013) and Prism 6.01. Data quality and data stability were controlled using S/B>2.50 and Z factor>0.50. The calculation formula was as follows: S/B=Avg100%/Avg0%; Z factor=1−(3*SD100%+3*SDO %)/|Avg100%-Avg0%.
# hTRPC5-T478C [4] = target: T1, hTRPC5-T478C; test: hTRPC5-T478C patch clamp IC50 assay; type: cell-based; details: hTRPC5-T478C-HEK cells, whole-cell patch clamp, Englerin A agonist
# Protocol: as §1, §2, §3
# (1) Extracellular fluid: sodium chloride (145 mmol/L), potassium chloride (4 mmol/L), magnesium chloride (1.5 mmol/L), glucose (10 mmol/L), hydroxyethyl piperazineethanesulfonic acid (HEPES, 10 mmol/L). The extracellular fluid was adjusted to pH 7.4 with NaOH, and the osmotic pressure was adjusted to about 305 mOsm/L with pure water or sucrose.
# (2) Intracellular fluid: cesium chloride (140 mmol/L), ethylene glycol diethyl ether diamine tetraacetic acid (EGTA, 1 mmol/L), magnesium chloride (2 mmol/L), glucose (10 mmol/L), hydroxyethyl piperazineethanesulfonic acid (HEPES, 10 mmol/L). The intracellular fluid was adjusted to pH 7.2 with […], and the osmotic pressure was adjusted to about 295 mOsm/L with pure water or sucrose.
# (3) The extracellular fluid was required to be formulated once a week, and the intracellular fluid was required to be subpackaged and stored at −20° C. after formulation.
# Positive reference compounds Englerin A and 2-aminoethoxydiphenyl borate (2-APB) were dissolved in 100% DMSO and stored as a 10 mM working solution after formulation. The test compounds were dissolved in 100% DMSO and stored as a 10 mM working solution after formulation. The final concentration of DMSO in the test solution should be less than 0.3%.
# Whole-cell patch clamping was performed at room temperature. The electrical signals recorded using an EPC 10 USB amplifier (HEKA Elektronik, Germany) were low-pass filtered at 3 kHz and finally recorded in PatchMaster 2×90.5 software (HEKA Elektronik, Germany). In this step, the quality control standards were that the cell high-resistance seal was formed at a value greater than 500 MOhms and the detection current was greater than 0.3 nA.
# The recording electrode was a borosilicate glass capillary (GC150tF-10, Harvard Apparatus Co., UK), which was pulled by a vertical puller (NARISHIGE PC-10, Japan) and polished. In this step, the quality control standard was that the electrode resistance was between 2 to 5 MΩ.
# During whole-cell patch clamp recordings, a continuous filling system (BT100-2J, LongerPump, China) was used to continuously perfuse extracellular fluid. The filling system was mounted on the stage of an upright microscope (FN—S2N, Nikon, Japan), and the filling tip was manually positioned under the microscope.
# The voltage instructions for hTRPC5-T478C current amplitude detection were as follows: the cells were clamped as follows: the clamping potential changed in a stepped manner from −40 mV to −80 mV (duration: 50 ms); then the clamping voltage ramped up to +80 mV, and the whole process lasted for 200 ms; then clamping was performed at +80 mV for 50 ms, and finally, the voltage returned to the clamping potential of −40 mV. […]
SMILES,IC50 (hTRPC5-T478C [3]),IC50 (hTRPC5-T478C [4]),podocyte cytoskeletal remodeling (TRPC5 [1]),protamine sulfate-induced podocyte injury (TRPC5 [1]),LPS-induced proteinuria (TRPC5 [2])
c1ccc(Cn2c(NCc3ccco3)nc3ccccc32)cc1 [AC1903],,,protects,inhibits,significantly reduces
O=c1[nH]ncc(N2CCc3c(ncnc3Sc3ccc(F)cc3Cl)C2)c1Cl [Compound WX017],0.056 µM,,,,
Cc1cc(N2CCCCC2)nc2ccccc12 [ML204],,,protects,inhibits,significantly reduces

# Now from value to compound, other results behind:
IC50 (hTRPC5-T478C [3]),IC50 (hTRPC5-T478C [4]),SMILES,podocyte cytoskeletal remodeling (TRPC5 [1]),protamine sulfate-induced podocyte injury (TRPC5 [1]),LPS-induced proteinuria (TRPC5 [2])
0.07 µM,0.0894 µM,C=C(c1ccc(F)cc1C(F)(F)F)c1ncnc2c1CCN(c1cn[nH]c(=O)c1Cl)C2 [Compound WX003],,,
0.012 µM,,CC(O)c1nc2c(c(Sc3ccc(F)cc3C(F)(F)F)n1)CCN(c1cn[nH]c(=O)c1Cl)C2 (stereo not shown) [Compound WX014],,,
